Results taken from patent US6991685B2, “Low temperature cleaning” (Ecolab Inc., priority 2003, dated 2006).
Like-named read-outs stand apart in the source and are kept apart here.

Key:
yeast-mold isolate = experiment: Coupon testing for bio-load removal study (five step sanitation program); assay type: cell-based, yeast-mold isolate from a beverage plant; conditions: silicon rubber coupon pre-treated with the labelled agent, inoculated, then five step sanitation program (2600 ppm Vortexx, 40° C., 15 minutes)
Procedure: The same yeast-mold isolates as in the antimicrobial treatment method were grown up for inoculation onto the coupons. The coupons were inoculated with the isolates. The coupons were then subjected to the inventive five step method involving an initial rinse step, a detergent wash step, an intermediate rinse step, an antimicrobial treatment step, and a final rinse step. The coupons were first placed in 1000 ml of ambient water for 10 minutes. The coupons were then placed in 1000 ml of a wash solution for 60 minutes. The coupons were then placed in a 2600 ppm solution Vortexx™ at 40° C. for 15 minutes. Finally, the coupons were placed in a jar containing sterile water. The carriers were than placed in 25 ml of 0.5% sodium thiosulfate neutralizing solution to suspend any surviving organisms. The neutralizing solution was then filtered and plated on Sabouraud's Dextrose Agar in order to determine the number of surviving organisms.

[1] = system: yeast-mold isolate (1/3 black fungal isolate, 1/3 gray fungal isolate, 1/3 Yarrowia lipolytica); assay type: cell-based, yeast-mold isolate from a beverage plant
[2] = 185 F. water, 15 minute contact, Stainless Steel coupon, no pre-treatment

O [185 F. Water, water] was tested, and the “Percent Reduction (avg of 3)” value (yeast-mold isolate) was 38.3%, the log reduction (yeast-mold isolate; listed as 185° F. Water) was less than 1 log and the log reduction (yeast-mold isolate; listed as 185° F. water) was 1 log. The “Percent Reduction” value ([1]; 185 F. water, 15-minute contact, BUNA N coupon, pH 2.3 phosphoric acid 104 F. 2 weeks) was greater than 99.5%, the “Percent Reduction” value ([1]; 185 F. water, 15-minute contact, BUNA N coupon, pH 13 caustic 185 F. 2 weeks) was greater than 99.8% and the “Filter Survivors” value [1, 2] was less than 1 CFU. The “Percent Reduction” value [1, 2] was greater than 99.9% and the log reduction ([1]; stainless steel coupon, not preconditioned, Table 2 treatments) was 3 log.
